Test results reported in US20250345295A1, “LMK235 COMPOSITIONS AND METHODS” (UNM Rainforest Innovations, priority 2024, published 2025).
Several values for one entry are separate records, joined by “and”; a condition that tells them apart may be missing. Identical values can stand only once.

Test system: differentially expressed genes in TG
Experiment: RNAseq gene expression profiling of TG
Type: in vivo, mouse
Details: for Log2FC Ascl1 / Log2FC Klf2 / Log2FC Klf4 / Log2FC Klf5 / Log2FC Klf6 / Log2FC Klf7 / Log2FC Klf9 / Log2FC Klf13 / Log2FC Klf15 / Log2FC Klf16 / Log2FC L-Myc (Mycl) / Log2FC Lin28b / Log2FC Myt1l / Log2FC N-Myc (Mycn) / Log2FC Nanog / Log2FC NeuroD1 / Log2FC Sirt1 / Log2FC Sox2 / Log2FC Sox11 / Log2FC Stat3 / Log2FC c-Myc (Myc): TG
Description: Gene expression profiling was performed on TG from mice with/without nerve injury during the acute phase (three weeks post injury) in TIC mice and after transition to chronic pain (10 weeks post injury) in FRICT-ION mice by Quick Biology Inc. (Monrovia, CA).
Total RNA from ipsilateral TG was isolated using the Rneasy Mini Kit (Qiagen, Valencia, CA). Gene expression profiling and analysis with RNA was done by Quick Biology Inc. (Monrovia, CA). RNAseq library preparation was performed by Quick Biology Inc. (Monrovia, CA), sequencing was performed using an Illumina HiSeq 4000 at 40 million reads per sample. The reads were first mapped to the latest UCSC transcript set using Bowtie2 version 2.1.0 and the gene expression level was estimated using RSEM v1.2.15. Differentially expressed genes were identified using the edgeR program. Genes showing altered expression with p<0.05 were considered differentially expressed.

[1] = TG RNAseq, LMK235-treated vs untreated FRICT-ION mice
[2] = TG RNAseq, male FRICT-ION mice treated with LMK235 vs Vehicle, week 10
[3] = TG RNAseq, male FRICT-ION mice treated with LMK235 vs naive, week 10
[4] = LMK235 Treated FRICT-ION versus Naive
[5] = LMK235 Treated FRICT-ION versus Untreated FRICT-ION

Cc1cc(C)cc(C(=O)NOCCCCCC(=O)NO)c1 [LMK235, N-[[6-(Hydroxyamino)-6-oxohexyl]oxy]-3,5-dimethyl-benzamide]
Nav3 downregulated, fold [1]: 1.19 fold
Net1 upregulated, fold [1]: 1.12 fold
Neurod4 upregulated, fold [1]: 1.57 fold
Nf2 upregulated, fold [1]: 1.04 fold
Ngef downregulated, fold [1]: 1.34 fold
Nkain2 downregulated, fold [1]: 1.14 fold
Nova1 upregulated, fold [1]: 1.04 fold
Nras downregulated, fold [1]: 1.03 fold
Nrg2 upregulated, fold [1]: 1.10 fold
Nrg3 downregulated, fold [1]: 1.00 fold
Ntrk1 upregulated, fold [1]: 1.80 fold
Nts downregulated, fold [1]: 1.74 fold
Scn2a Scn2a1 downregulated, fold [1]: 1.04 fold
Scn3a downregulated, fold [1]: 1.01 fold
Scn7a downregulated, fold [1]: 1.07 fold
Scn8a upregulated, fold [1]: 1.05 fold
Scn9a upregulated, fold [1]: 1.29 fold
Trpc6 upregulated, fold [1]: 1.08 fold
Trpm3 upregulated, fold [1]: 1.19 fold
Trpm4 upregulated, fold [1]: 1.05 fold
Trpv6 downregulated, fold [1]: 1.19 fold
Fold change 1700047I17Rik2 [2]: 3.82 fold
Fold change 8430408G22Rik [2]: 2.46 fold
Fold change Acta2 [2]: 2.01 fold
Fold change Amy2a5 [2]: 2.03 fold
Fold change Armc3 [2]: 2.04 fold
Fold change Asb4 [2]: 1.53 fold
Fold change C1ql2 [2]: 2.34 fold
Fold change C1ql4 [2]: 4.76 fold
Fold change Calcb [2]: 2.17 fold
Fold change Ccdc153 [2]: 2.32 fold
Fold change Cckbr [2]: −2.32 fold
Fold change Crhbp [2]: 2.79 fold
Fold change Cutal [2]: 2.10 fold
Fold change Cyp26b1 [2]: 2.99 fold
Fold change Cytl1 [2]: 2.14 fold
Fold change Dmrt3 [2]: 2.46 fold
Fold change Eif3j2 [2]: 3.88 fold
Fold change Evi2a-evi2b [2]: 136.10 fold
Fold change Fev [2]: 2.35 fold
Fold change Gata3 [2]: 3.74 fold
Fold change Gh [2]: −25.22 fold
Fold change Gm833 [2]: 2.45 fold
Fold change Gm8221 [2]: 241.23 fold
Fold change Gm13306 [2]: 48.23 fold
Fold change Gpx2 [2]: 3.17 fold
Fold change Gucy2f [2]: 2.13 fold
Fold change H19 [2]: 2.05 fold
Fold change Hdac5 [2]: −2.03 fold
Fold change Hist2h3c2 [2]: 128.58 fold
Fold change Hoxb9 [2]: −16.50 fold and −16.5 fold
Fold change Hoxc8 [2]: −8.22 fold
Fold change Hoxd8 [2]: −4.14 fold
Fold change Irx4 [2]: 2.51 fold
Fold change Isl1 [2]: 2.30 fold
Fold change Kcnmb1 [2]: 2.15 fold
Fold change Mgl2 [2]: 2.39 fold
Fold change Myom1 [2]: 2.01 fold
Fold change Nkx6-3 [2]: 2.10 fold
Fold change Onecut3 [2]: 2.22 fold
Fold change P2rx2 [2]: −1.84 fold
Fold change P2rx4 [2]: −2.08 fold
Fold change Pappa2 [2]: 2.16 fold
Fold change Pde4c [2]: 2.45 fold
Fold change Ppp1r1c [2]: 2.51 fold
Fold change Sec16b [2]: 1.98 fold
Fold change Serpina3h [2]: 2.51 fold
Fold change Shox2 [2]: 2.49 fold
Fold change Slc6a4 [2]: 4.38 fold
Fold change Slc18a2 [2]: 2.01 fold
Fold change Slfn4 [2]: −2.32 fold
Fold change Sp8 [2]: 2.42 fold
Fold change Tmprss11d [2]: 2.98 fold
Fold change Tph2 [2]: 4.18 fold
Fold change Tyrp1 [2]: 3.03 fold
Fold change Vmn2r84 [2]: 2.71 fold
Fold change lc6a2 [2]: 2.91 fold
Gh downregulated, fold [2]: 25.22 fold
Hoxb9 downregulated, fold [2]: 16.50 fold
Hoxc8 downregulated, fold [2]: 8.22 fold
Hoxd8 downregulated, fold [2]: 4.14 fold
P2rx4 downregulated, fold [2]: 2.08 fold
Slfn4 downregulated, fold [2]: 2.32 fold
Fold change 1500015O10Rik [3]: 4.68 fold
Fold change 4833423E24Rik [3]: 2.10 fold
Fold change Ache [3]: −1.12 fold
Fold change Ackr4 [3]: 3.74 fold
Fold change Aqp1 [3]: 7.41 fold and 7.4 fold
Fold change Calml4 [3]: 2.88 fold
Fold change Car12 [3]: 6.21 fold
Fold change Ccdc135 [3]: 2.84 fold
Fold change Cldn1 [3]: 2.48 fold
Fold change Cldn2 [3]: 8.46 fold
Fold change Col8a2 [3]: 3.06 fold
Fold change Crhr2 [3]: 2.35 fold
Fold change Enpp2 [3]: 2.22 fold
Fold change F5 [3]: 6.19 fold
Fold change Fap [3]: 3.16 fold
Fold change Folr1 [3]: 11.92 fold and 11.91 fold
Fold change Gmnc [3]: 2.40 fold
Fold change Gvin1 [3]: 5.55 fold
Fold change Hdac5 [3]: −1.13 fold
Fold change Hdac10 [3]: −1.20 fold
Fold change Igfbpl1 [3]: 2.39 fold
Fold change Il1a [3]: 2.21 fold
Fold change Inmt [3]: 6.34 fold
Fold change Kcne2 [3]: 17.29 fold
Fold change Kcnj13 [3]: 7.84 fold
Fold change Kl [3]: 5.00 fold
Fold change Krt18 [3]: 6.56 fold
Fold change Lbp [3]: 3.97 fold
Fold change Lum [3]: 2.08 fold
Fold change Mfrp [3]: 4.30 fold
Fold change Otx2 [3]: 5.17 fold
Fold change Postn [3]: 2.24 fold
Fold change Prr32 [3]: 5.41 fold
Fold change Rbm14-rbm4 [3]: 66.16 fold
Fold change Slc4a5 [3]: 4.83 fold
Fold change Sostdc1 [3]: 15.70 fold
Fold change Tgtp1 [3]: 2.49 fold
Fold change Tmem72 [3]: 6.47 fold
Fold change Tmprss11a [3]: 37.90 fold
Fold change Tnfsf13 [3]: 2.14 fold
Fold change Ttr [3]: 23.21 fold
Fold change Wfdc2 [3]: 4.61 fold
Log2FC Ascl1 [4]: 1.16 Log2FC
Log2FC Klf2 [4]: −1.57 Log2FC
Log2FC Klf4 [4]: −1.23 Log2FC
Log2FC Klf5 [4]: 1.25 Log2FC
Log2FC Klf6 [4]: 1.03 Log2FC
Log2FC Klf7 [4]: 1.12 Log2FC
Log2FC Klf9 [4]: −1.03 Log2FC
Log2FC Klf13 [4]: −1.16 Log2FC
Log2FC Klf15 [4]: −1.26 Log2FC
Log2FC Klf16 [4]: −1.08 Log2FC
Log2FC L-Myc (Mycl) [4]: 1.08 Log2FC
Log2FC Lin28b [4]: −1.13 Log2FC
Log2FC Myt1l [4]: 1.03 Log2FC
Log2FC N-Myc (Mycn) [4]: 1.63 Log2FC
Log2FC Nanog [4]: 1.01 Log2FC
Log2FC NeuroD1 [4]: 1.26 Log2FC
Log2FC Sirt1 [4]: 1.17 Log2FC
Log2FC Sox2 [4]: 1.25 Log2FC
Log2FC Sox11 [4]: 1.05 Log2FC
Log2FC Stat3 [4]: −1.00 Log2FC
Log2FC c-Myc (Myc) [4]: 1.14 Log2FC
Log2FC Ascl1 [5]: 1.05 Log2FC
Log2FC Klf2 [5]: 1.20 Log2FC
Log2FC Klf4 [5]: 1.13 Log2FC
Log2FC Klf5 [5]: −1.30 Log2FC
Log2FC Klf6 [5]: 1.05 Log2FC
Log2FC Klf7 [5]: 1.15 Log2FC
Log2FC Klf9 [5]: −1.05 Log2FC
Log2FC Klf13 [5]: −1.17 Log2FC
Log2FC Klf15 [5]: −1.16 Log2FC
Log2FC Klf16 [5]: −1.24 Log2FC
Log2FC L-Myc (Mycl) [5]: −1.54 Log2FC
Log2FC Lin28b [5]: 1.07 Log2FC
Log2FC Myt1l [5]: −1.17 Log2FC
Log2FC N-Myc (Mycn) [5]: 1.00 Log2FC
Log2FC Nanog [5]: −1.03 Log2FC
Log2FC NeuroD1 [5]: 1.21 Log2FC
Log2FC Sirt1 [5]: 1.02 Log2FC
Log2FC Sox2 [5]: 1.07 Log2FC
Log2FC Sox11 [5]: −1.21 Log2FC
Log2FC Stat3 [5]: −1.04 Log2FC
Log2FC c-Myc (Myc) [5]: −1.03 Log2FC
